Blank lines part the entries; values can stand above or below the compound they belong to.
What was measured:
[1] = target: Progesterone receptor (Homo sapiens) (UniProt P06401); assay: Selectivity interaction (Eurofins CEREP Diversity Profile (receptors and ion channels)) EUB0000279b PGR; settings: at 10 µM
[2] = target: Ribosomal protein S6 kinase alpha-2 (Homo sapiens) (UniProt Q15349); assay: Selectivity interaction (KinomeScan (DiscoverX)) EUB0000666a RPS6KA2; settings: at 10 µM
[3] = target: Serine/threonine-protein kinase PAK 4 (Homo sapiens, UniProt O96013); settings: at 10 µM
[4] = target: Phosphatidylinositol 4,5-bisphosphate 3-kinase catalytic subunit gamma isoform (Homo sapiens) (UniProt P48736); assay: Selectivity interaction (Kinase panel (Invitrogen)) EUB0000639a PIK3CG; settings: at 200 nM
[5] = target: Ephrin type-A receptor 7 (Homo sapiens) (UniProt Q15375); assay: Selectivity interaction (ProQinase) EUB0000171b EPHA7
[6] = target: T1, Serine/threonine-protein kinase DCLK1 (Homo sapiens) (UniProt O15075); assay: Selectivity interaction (Kinase panel (DSF assay)) EUB0001559a DCLK1
T1 sequence (whole entry): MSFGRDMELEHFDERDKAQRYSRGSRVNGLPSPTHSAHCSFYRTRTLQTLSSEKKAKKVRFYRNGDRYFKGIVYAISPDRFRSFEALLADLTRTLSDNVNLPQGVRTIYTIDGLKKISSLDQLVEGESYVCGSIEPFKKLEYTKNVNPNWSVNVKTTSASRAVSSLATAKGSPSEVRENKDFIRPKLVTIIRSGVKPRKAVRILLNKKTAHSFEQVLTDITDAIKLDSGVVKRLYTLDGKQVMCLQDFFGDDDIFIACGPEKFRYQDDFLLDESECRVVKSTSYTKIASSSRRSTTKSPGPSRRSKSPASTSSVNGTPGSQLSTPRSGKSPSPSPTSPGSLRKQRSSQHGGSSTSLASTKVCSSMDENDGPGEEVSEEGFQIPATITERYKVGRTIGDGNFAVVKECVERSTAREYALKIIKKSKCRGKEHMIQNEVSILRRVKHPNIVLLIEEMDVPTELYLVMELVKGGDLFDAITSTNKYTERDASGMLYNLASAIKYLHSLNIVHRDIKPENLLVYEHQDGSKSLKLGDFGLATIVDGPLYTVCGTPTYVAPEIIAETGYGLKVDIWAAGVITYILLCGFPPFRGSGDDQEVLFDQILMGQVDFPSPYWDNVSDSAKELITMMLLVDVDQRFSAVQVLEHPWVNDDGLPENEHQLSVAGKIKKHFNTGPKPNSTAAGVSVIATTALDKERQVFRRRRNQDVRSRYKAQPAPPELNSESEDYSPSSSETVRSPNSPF

[7] = target: Ribosomal protein S6 kinase alpha-2 (Homo sapiens) (UniProt Q15349); assay: Selectivity interaction (KinomeScan (DiscoverX)) EUB0000655a RPS6KA2; settings: at 10 µM
[8] = target: CDK4/Cyclin D3 (Homo sapiens) (UniProt P11802+P30281); assay: (§1) Selectivity interaction (KinomeScan (DiscoverX)) EUB0000045b CDK4; format: protein-complex assay
[9] = target: Cyclin-dependent kinase 4/cyclin D1 (Homo sapiens) (UniProt P11802+P24385); assay: as §1; format: protein-complex assay
[10] = target: T2, Ephrin type-A receptor 8 (Homo sapiens) (UniProt P29322); assay: Selectivity interaction (KinomeScan (DiscoverX)) EUB0001079a EPHA8; settings: at 1 µM
T2 sequence (whole entry): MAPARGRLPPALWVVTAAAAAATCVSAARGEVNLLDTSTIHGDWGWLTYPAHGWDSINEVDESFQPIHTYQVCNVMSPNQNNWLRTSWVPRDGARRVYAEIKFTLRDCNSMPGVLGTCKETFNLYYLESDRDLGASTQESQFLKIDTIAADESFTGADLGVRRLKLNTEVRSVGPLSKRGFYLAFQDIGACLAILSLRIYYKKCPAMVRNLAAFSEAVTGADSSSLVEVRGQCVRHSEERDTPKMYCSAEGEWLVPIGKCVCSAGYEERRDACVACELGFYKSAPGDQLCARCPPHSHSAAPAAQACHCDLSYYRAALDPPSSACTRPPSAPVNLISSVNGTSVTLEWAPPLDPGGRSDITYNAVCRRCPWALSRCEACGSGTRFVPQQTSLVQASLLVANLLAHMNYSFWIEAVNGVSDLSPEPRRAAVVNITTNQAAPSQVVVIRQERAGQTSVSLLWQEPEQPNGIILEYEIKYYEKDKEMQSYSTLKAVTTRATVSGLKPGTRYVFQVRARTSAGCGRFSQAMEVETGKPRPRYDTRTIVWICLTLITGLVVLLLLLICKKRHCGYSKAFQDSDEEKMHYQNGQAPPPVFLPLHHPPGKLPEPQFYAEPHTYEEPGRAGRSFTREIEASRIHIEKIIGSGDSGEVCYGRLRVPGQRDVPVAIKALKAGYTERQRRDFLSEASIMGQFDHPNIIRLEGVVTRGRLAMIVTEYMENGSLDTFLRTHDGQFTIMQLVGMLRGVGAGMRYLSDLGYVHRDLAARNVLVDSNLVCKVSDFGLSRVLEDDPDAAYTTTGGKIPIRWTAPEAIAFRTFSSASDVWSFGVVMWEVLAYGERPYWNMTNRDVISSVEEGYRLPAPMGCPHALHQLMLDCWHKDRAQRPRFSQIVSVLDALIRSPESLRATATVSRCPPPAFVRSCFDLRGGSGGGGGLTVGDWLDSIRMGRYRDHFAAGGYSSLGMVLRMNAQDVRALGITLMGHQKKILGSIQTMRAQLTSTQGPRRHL

[11] = target: Phosphatidylinositol 4-kinase beta (Homo sapiens, UniProt Q9UBF8); assay: Selectivity interaction (KinomeScan (DiscoverX)) EUB0000229b PI4KB; settings: at 10 µM
[12] = target: Serine/threonine-protein kinase mTOR (Homo sapiens, UniProt P42345); settings: at 10 µM
[13] = target: T3, STE20-related kinase adapter protein alpha (Homo sapiens) (UniProt Q7RTN6); assay: Selectivity interaction (ActivX KiNativ screen (ex vivo kinase selectivity in human PBMCs)) EUB0001619a STRADA; format: cell-based; settings: PBMC, at 1 µM
T3 sequence (whole entry): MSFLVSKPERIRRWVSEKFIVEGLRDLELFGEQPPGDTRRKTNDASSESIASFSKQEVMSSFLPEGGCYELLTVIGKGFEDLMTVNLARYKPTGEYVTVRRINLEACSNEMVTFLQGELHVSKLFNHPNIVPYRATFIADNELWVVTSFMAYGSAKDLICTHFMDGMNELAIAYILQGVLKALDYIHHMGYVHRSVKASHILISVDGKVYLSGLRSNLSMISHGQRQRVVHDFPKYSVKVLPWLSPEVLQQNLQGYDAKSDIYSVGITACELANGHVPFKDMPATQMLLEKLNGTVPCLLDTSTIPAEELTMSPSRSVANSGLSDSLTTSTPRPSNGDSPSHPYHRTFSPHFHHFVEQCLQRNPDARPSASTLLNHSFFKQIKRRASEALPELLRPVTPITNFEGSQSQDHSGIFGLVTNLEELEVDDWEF

Ephrin type-A receptor 7 (Homo sapiens), sequence (Q15375 28-998 limits assumed): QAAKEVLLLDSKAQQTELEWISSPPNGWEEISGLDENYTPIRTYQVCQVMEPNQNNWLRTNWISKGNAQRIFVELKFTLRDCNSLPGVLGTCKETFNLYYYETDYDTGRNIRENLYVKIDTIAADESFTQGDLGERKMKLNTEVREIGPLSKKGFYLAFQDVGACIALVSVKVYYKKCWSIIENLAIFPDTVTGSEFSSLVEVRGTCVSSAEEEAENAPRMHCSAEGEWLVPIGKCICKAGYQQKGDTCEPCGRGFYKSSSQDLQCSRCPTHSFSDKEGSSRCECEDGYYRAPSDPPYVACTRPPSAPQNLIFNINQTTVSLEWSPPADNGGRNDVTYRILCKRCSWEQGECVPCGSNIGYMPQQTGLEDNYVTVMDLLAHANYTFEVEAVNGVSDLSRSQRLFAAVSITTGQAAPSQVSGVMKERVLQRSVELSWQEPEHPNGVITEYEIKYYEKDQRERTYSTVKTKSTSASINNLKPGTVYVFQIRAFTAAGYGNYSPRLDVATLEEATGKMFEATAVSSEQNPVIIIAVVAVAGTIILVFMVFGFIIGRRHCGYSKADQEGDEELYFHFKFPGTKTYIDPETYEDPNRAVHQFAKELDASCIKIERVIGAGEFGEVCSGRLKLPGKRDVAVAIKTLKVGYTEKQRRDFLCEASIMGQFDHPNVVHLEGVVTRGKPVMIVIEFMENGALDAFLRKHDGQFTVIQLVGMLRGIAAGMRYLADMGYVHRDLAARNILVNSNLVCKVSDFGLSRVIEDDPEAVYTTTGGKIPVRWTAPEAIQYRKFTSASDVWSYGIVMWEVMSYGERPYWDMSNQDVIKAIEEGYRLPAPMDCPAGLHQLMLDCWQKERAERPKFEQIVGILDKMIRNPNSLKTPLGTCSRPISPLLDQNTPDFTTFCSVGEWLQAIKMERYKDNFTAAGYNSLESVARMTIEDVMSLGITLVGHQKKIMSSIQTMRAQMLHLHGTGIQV
Ribosomal protein S6 kinase alpha-2 (Homo sapiens), sequence (Q15349 whole entry): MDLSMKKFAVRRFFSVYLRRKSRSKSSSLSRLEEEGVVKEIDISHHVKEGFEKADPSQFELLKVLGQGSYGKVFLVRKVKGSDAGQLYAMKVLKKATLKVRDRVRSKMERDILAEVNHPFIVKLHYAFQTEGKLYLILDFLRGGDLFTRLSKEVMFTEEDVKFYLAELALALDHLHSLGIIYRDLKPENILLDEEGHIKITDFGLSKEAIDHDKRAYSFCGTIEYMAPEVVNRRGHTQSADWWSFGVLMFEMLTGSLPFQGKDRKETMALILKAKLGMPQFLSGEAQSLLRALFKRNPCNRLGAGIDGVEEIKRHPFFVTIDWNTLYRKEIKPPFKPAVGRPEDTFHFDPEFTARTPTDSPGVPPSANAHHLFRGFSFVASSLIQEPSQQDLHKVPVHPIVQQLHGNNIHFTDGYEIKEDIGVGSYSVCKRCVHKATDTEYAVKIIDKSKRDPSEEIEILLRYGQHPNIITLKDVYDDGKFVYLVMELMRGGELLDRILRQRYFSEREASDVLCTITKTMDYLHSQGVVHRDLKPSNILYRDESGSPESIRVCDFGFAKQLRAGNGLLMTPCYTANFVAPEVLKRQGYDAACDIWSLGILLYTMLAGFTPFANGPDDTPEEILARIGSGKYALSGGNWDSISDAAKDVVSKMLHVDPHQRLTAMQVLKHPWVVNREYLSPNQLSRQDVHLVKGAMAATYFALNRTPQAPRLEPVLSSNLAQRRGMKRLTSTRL
Phosphatidylinositol 4-kinase beta, sequence (Q9UBF8 2-816 limits assumed): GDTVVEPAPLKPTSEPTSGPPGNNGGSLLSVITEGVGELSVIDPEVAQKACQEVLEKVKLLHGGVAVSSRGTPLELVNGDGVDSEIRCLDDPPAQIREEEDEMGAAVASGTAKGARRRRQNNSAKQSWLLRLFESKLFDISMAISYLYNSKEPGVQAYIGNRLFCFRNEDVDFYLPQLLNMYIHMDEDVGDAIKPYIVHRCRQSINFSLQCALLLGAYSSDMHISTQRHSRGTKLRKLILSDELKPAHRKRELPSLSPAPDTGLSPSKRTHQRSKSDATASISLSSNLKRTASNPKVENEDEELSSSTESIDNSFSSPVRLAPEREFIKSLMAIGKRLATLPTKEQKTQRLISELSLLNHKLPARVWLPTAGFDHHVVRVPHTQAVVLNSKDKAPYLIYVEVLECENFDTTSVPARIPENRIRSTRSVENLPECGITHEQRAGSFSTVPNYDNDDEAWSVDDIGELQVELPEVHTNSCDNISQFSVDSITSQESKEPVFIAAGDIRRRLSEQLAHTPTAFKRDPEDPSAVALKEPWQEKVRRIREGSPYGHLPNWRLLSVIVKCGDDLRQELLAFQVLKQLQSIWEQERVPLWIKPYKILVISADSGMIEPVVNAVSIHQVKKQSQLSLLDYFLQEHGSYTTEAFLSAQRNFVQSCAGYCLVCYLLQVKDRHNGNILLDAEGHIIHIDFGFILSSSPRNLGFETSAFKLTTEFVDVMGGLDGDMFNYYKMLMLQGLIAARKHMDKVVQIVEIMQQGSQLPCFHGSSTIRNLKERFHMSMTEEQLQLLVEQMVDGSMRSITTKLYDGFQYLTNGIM
Progesterone receptor (Homo sapiens), sequence (P06401 whole entry): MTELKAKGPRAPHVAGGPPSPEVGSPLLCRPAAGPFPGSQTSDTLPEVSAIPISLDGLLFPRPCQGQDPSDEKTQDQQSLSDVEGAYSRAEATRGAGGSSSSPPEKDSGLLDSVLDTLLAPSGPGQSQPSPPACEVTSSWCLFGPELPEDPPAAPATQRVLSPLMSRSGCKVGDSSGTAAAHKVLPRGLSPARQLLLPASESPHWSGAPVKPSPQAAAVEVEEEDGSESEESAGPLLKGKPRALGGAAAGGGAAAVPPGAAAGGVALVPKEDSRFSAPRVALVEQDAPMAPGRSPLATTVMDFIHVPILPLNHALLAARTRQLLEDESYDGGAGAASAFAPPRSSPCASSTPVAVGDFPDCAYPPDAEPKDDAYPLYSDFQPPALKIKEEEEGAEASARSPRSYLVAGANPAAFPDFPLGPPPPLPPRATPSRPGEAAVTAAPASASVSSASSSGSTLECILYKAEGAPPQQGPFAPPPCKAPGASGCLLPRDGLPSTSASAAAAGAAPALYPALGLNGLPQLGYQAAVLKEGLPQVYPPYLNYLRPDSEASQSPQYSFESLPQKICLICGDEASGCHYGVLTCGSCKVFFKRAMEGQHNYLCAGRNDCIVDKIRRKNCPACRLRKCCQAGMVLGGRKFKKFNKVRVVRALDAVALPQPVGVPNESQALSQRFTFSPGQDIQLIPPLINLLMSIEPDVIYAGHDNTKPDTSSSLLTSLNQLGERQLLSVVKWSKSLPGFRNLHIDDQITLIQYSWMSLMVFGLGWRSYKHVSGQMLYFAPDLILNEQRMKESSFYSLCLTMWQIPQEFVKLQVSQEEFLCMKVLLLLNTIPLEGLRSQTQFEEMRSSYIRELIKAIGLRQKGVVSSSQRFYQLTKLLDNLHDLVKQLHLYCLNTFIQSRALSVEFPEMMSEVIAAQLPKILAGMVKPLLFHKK
Serine/threonine-protein kinase PAK 4, sequence (O96013 whole entry, looked up, canonical isoform): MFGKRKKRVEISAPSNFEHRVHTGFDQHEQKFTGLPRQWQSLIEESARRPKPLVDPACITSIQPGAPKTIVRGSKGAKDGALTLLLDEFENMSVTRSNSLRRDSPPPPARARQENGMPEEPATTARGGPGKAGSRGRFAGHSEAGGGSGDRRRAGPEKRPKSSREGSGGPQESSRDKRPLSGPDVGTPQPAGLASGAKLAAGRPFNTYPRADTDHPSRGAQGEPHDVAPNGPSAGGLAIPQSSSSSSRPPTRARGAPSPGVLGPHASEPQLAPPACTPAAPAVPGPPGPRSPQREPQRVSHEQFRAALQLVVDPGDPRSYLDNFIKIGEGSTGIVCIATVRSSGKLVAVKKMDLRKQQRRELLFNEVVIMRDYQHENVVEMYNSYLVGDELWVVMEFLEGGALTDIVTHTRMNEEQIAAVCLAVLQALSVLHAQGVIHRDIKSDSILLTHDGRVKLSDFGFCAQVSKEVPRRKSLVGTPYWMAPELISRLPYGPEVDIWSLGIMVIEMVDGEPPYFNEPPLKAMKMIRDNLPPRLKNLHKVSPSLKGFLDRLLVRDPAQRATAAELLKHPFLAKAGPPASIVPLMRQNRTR

- % of control [1]: 81%
Structure (SMILES): CC(=O)c1cc(-c2ccccc2OCC2CC2)c2ncccn12

Structure (SMILES): O=C(NOC[C@H](O)CO)c1ccc(F)c(F)c1Nc1ccc(I)cc1F
- % of control [2]: 100%

- % of control [3]: 100%
Structure (SMILES): CCN(CC)CCCCNc1ncc2cc(-c3cc(OC)cc(OC)c3)c(NC(=O)NC(C)(C)C)nc2n1

- % of inhibition [4]: 6.49%
Structure (SMILES): CC[C@@H]1[C@H](F)C(=O)N[C@@H]1COc1nccc2cc(C(N)=O)c(OC)cc12 [ZIMLOVISERTIB]

- % of control ([5]; at 1 µM): 93%
- % of control ([5]; at 5 µM): 89%
Structure (SMILES): C=CC(=O)Nc1cccc(C(=O)Nc2ccc(Nc3cc(-c4[nH]c(SC)nc4C)ccn3)cc2)c1

- dTM [6]: 0.8 K
Structure (SMILES): CN(C(=O)c1cnn2cccnc12)c1cc2c(cc1N1CCOCC1)C(=O)N(C[C@@H](F)C(C)(C)O)C2

Structure (SMILES): CN(C)CCOc1ccc(-c2nc(-c3ccncc3)c(-c3ccc4c(c3)CC/C4=N\O)[nH]2)cc1
- % of control [7]: 100%

Structure (SMILES): C=CC(=O)Nc1cc(-n2c(=O)ccc3cnc4ccc(-c5ccc(NS(C)(=O)=O)cc5)cc4c32)ccc1C
- % of control ([8]; at 1 µM): 100%
- % of control ([8]; at 10 µM): 93%
- % of control ([9]; at 1 µM): 100%
- % of control ([9]; at 10 µM): 100%

Structure (SMILES): Nc1cnc(N2CCc3cc(S(=O)(=O)Nc4c(F)cc(Cl)cc4F)cc(N4CCCC4=O)c32)nc1 [TP-020n]
- % of control [10]: 100%

Structure (SMILES): COc1cc(N(C)c2ccnc3ccc(C(F)(F)F)cc23)cc(OC)c1OC
- % binding [11]: 90%

Structure (SMILES): Cc1cc([C@@H](C)Nc2ccccc2C(=O)O)c2nc(N3CCOCC3)cc(=O)n2c1 [AZD-6482]
- % of control [12]: 11%

Structure (SMILES): N#Cc1cccc(-c2c[nH]c3ncnc(N4CCOCC4)c23)c1
- % of inhibition [13]: 1%

Source: ChEMBL document CHEMBL5465560, “Selectivity Literature for EUbOPEN Chemogenomic Library” (2024)
